The text below walks through data of BindingDB's records for doi:10.1021/jm9705519 (National Institute On Drug Abuse-Intramural Research Program, 1998).

As usually defined, the IC50 is the concentration needed to halve the response being measured.

Chain of Sigma non-opioid intracellular receptor 1 (Cavia porcellus) (Q60492 whole entry, looked up): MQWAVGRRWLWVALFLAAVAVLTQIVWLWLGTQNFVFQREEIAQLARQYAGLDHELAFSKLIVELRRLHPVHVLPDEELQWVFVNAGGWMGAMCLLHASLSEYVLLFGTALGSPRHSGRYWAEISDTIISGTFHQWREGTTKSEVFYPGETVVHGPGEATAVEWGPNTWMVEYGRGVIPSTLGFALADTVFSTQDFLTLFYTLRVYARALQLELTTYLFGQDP

This assay has as its target Sigma non-opioid intracellular receptor 1 (Cavia porcellus) (UniProt Q60492). As to the kind of experiment: Binding affinity was evaluated using [3H]pentazocine binding to sigma-1 receptor from guinea pig brain.
`C[C@H]1CN(CCCn2c3ccccc3c3ccccc32)C[C@H](C)N1C`: the IC50 worked out at 897 nM.

For `CC1CN(CCCn2c3ccccc3c3ccccc32)CC(C)N1CCN=C=S` (centres undefined) [9-{3-[4-(2-Isothiocyanato-ethyl)-3,5-dimethyl-piperazin-1-yl]-propyl}-9H-carbazole], the IC50 is 949 nM. With `CC1CN(CCCn2c3ccccc3c3ccccc32)CC(C)N1CCCN=C=S` (centres undefined) [9-{3-[4-(3-Isothiocyanato-propyl)-3,5-dimethyl-piperazin-1-yl]-propyl}-9H-carbazole], the IC50 is 1830 nM. Under `CC1CN(CCCn2c3ccccc3c3ccccc32)CC(C)N1CCCCCCN=C=S` (centres undefined) [9-{3-[4-(6-Isothiocyanato-hexyl)-3,5-dimethyl-piperazin-1-yl]-propyl}-9H-carbazole] stands 707 nM.
